According to the supplement of paper PMC10883282:

How the values were obtained:
Assay in all cases: relative viability vs DMSO control (72 h) (fraction); higher = more viable cells
KHOS-NP = system: KHOS-NP
Procedure, shortened: (§1)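 Sarcoma cell lines in 384-well plates, seeded to reach 80–90% confluence, were given compound after 24 h and kept 72 h at 37 °C, 5% CO2, with 0.1% DMSO vehicle and a 5 µM positive control. Relative viability came from ATPLite as percent growth, averaged over up to triplicate wells. On the rescaled values, 1 equals full and 0 equals none.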

MES-SA = system: MES-SA
Procedure, shortened: as §1

SW872 = system: SW872
Procedure, shortened: as §1

A204 = system: A204
Procedure, shortened: as §1

SW684 = system: SW684
Procedure, shortened: as §1

SK-ES-1 = system: SK-ES-1
Procedure, shortened: as §1

RD = system: RD
Procedure, shortened: as §1

VA-ES-BJ = system: VA-ES-BJ
Procedure, shortened: as §1

SYO-1 = system: SYO-1
Procedure, shortened: as §1

HS729 = system: HS729
Procedure, shortened: as §1

SK-LMS-1 = system: SK-LMS-1
Procedure, shortened: as §1

G401 = system: G401
Procedure, shortened: as §1

Cc1cc(Nc2ncc(Cl)c(Nc3ccccc3S(=O)(=O)C(C)C)n2)c(OC(C)C)cc1C1CCNCC1 [Ceritinib]
Conditions	relative viability
A204, 0.00017 µM	1.05
A204, 0.00051 µM	1.07
A204, 0.00152 µM	1.08
A204, 0.00457 µM	1.07
A204, 0.01372 µM	1.07
A204, 0.04115 µM	1.06
A204, 0.1235 µM	1.06
A204, 0.3704 µM	1.04
A204, 1.111 µM	0.928
A204, 3.333 µM	0.334
A204, 10 µM	0.0012
G401, 0.00017 µM	0.953
G401, 0.00051 µM	0.932
G401, 0.00152 µM	0.971
G401, 0.00457 µM	0.974
G401, 0.01372 µM	0.972
G401, 0.04115 µM	0.961
G401, 0.1235 µM	0.918
G401, 0.3704 µM	0.788
G401, 1.111 µM	0.615
G401, 3.333 µM	0.416
G401, 10 µM	-0.00287
HS729, 0.00017 µM	0.955
HS729, 0.00051 µM	1.02
HS729, 0.00152 µM	1.03
HS729, 0.00457 µM	1.01
HS729, 0.01372 µM	1.03
HS729, 0.04115 µM	1.02
HS729, 0.1235 µM	0.95
HS729, 0.3704 µM	0.847
HS729, 1.111 µM	0.751
HS729, 3.333 µM	0.626
HS729, 10 µM	0.0042
KHOS-NP, 0.00017 µM	1.04
KHOS-NP, 0.00051 µM	1.04
KHOS-NP, 0.00152 µM	1.04
KHOS-NP, 0.00457 µM	1.06
KHOS-NP, 0.01372 µM	1.06
KHOS-NP, 0.04115 µM	1.05
KHOS-NP, 0.1235 µM	1.05
KHOS-NP, 0.3704 µM	1.02
KHOS-NP, 1.111 µM	1.02
KHOS-NP, 3.333 µM	0.95
KHOS-NP, 10 µM	0.0055
MES-SA, 0.00017 µM	0.953
MES-SA, 0.00051 µM	0.92
MES-SA, 0.00152 µM	0.95
MES-SA, 0.00457 µM	0.951
MES-SA, 0.01372 µM	0.963
MES-SA, 0.04115 µM	0.969
MES-SA, 0.1235 µM	0.96
MES-SA, 0.3704 µM	0.98
MES-SA, 1.111 µM	0.94
MES-SA, 3.333 µM	0.676
MES-SA, 10 µM	-0.00177
RD, 0.00017 µM	0.996
RD, 0.00051 µM	1.02
RD, 0.00152 µM	1.04
RD, 0.00457 µM	0.996
RD, 0.01372 µM	1.03
RD, 0.04115 µM	1.02
RD, 0.1235 µM	0.947
RD, 0.3704 µM	0.771
RD, 1.111 µM	0.576
RD, 3.333 µM	0.381
RD, 10 µM	0.001
SK-ES-1, 0.00017 µM	0.967
SK-ES-1, 0.00051 µM	0.984
SK-ES-1, 0.00152 µM	1
SK-ES-1, 0.00457 µM	0.974
SK-ES-1, 0.01372 µM	0.961
SK-ES-1, 0.04115 µM	0.995
SK-ES-1, 0.1235 µM	0.914
SK-ES-1, 0.3704 µM	0.6537
SK-ES-1, 1.111 µM	0.339
SK-ES-1, 3.333 µM	0.102
SK-ES-1, 10 µM	0.000733
SK-LMS-1, 0.00017 µM	1.01
SK-LMS-1, 0.00051 µM	1.04
SK-LMS-1, 0.00152 µM	1.04
SK-LMS-1, 0.00457 µM	1.03
SK-LMS-1, 0.01372 µM	1.022
SK-LMS-1, 0.04115 µM	1.01
SK-LMS-1, 0.1235 µM	1.05
SK-LMS-1, 0.3704 µM	0.959
SK-LMS-1, 1.111 µM	0.96
SK-LMS-1, 3.333 µM	0.794
SK-LMS-1, 10 µM	0.00573
SW684, 0.00017 µM	1.07
SW684, 0.00051 µM	1.083
SW684, 0.00152 µM	1.09
SW684, 0.00457 µM	1.08
SW684, 0.01372 µM	1.12
SW684, 0.04115 µM	1.095
SW684, 0.1235 µM	1.122
SW684, 0.3704 µM	1.08
SW684, 1.111 µM	1.15
SW684, 3.333 µM	0.883
SW684, 10 µM	-0.0212
SW872, 0.00017 µM	1
SW872, 0.00051 µM	1.02
SW872, 0.00152 µM	1.07
SW872, 0.00457 µM	1.06
SW872, 0.01372 µM	1.09
SW872, 0.04115 µM	1.04
SW872, 0.1235 µM	1
SW872, 0.3704 µM	0.946
SW872, 1.111 µM	0.8717
SW872, 3.333 µM	0.631
SW872, 10 µM	-0.00807
SYO-1, 0.00017 µM	1.02
SYO-1, 0.00051 µM	1.02
SYO-1, 0.00152 µM	1.06
SYO-1, 0.00457 µM	1.07
SYO-1, 0.01372 µM	1.05
SYO-1, 0.04115 µM	1.01
SYO-1, 0.1235 µM	0.987
SYO-1, 0.3704 µM	0.919
SYO-1, 1.111 µM	0.882
SYO-1, 3.333 µM	0.51
SYO-1, 10 µM	-0.00767
VA-ES-BJ, 0.00017 µM	1.05
VA-ES-BJ, 0.00051 µM	1.04
VA-ES-BJ, 0.00152 µM	1.04
VA-ES-BJ, 0.00457 µM	1.05
VA-ES-BJ, 0.01372 µM	1.06
VA-ES-BJ, 0.04115 µM	1.03
VA-ES-BJ, 0.1235 µM	1.02
VA-ES-BJ, 0.3704 µM	0.975
VA-ES-BJ, 1.111 µM	0.954
VA-ES-BJ, 3.333 µM	0.929
VA-ES-BJ, 10 µM	-0.008
